How the values were obtained:
[1] = system: mouse muscle-relaxing action; assay: Muscle-relaxing action (traction test); assay type: in vivo; conditions: IP, doses in mg.kg^-1
Source text: 3. Muscle-relaxing action (traction test)
This test assesses the presence or absence of redressments in a mouse brought up to a horizontal wire with its front paws.
The number of mice which are unable to grip the wire with one of their back paws within 5 s is noted.
A 50% effective dose can be calculated from the results obtained.

in vivo = conditions: mouse, in vivo, ip
Experimental: (§1) The toxicity of the compounds of the invention was determined by the following test:
(§2) Determination of the 50% lethal dose (LD50) in mice
(§3) The test product was administered intraperitoneally to groups of 5 male mice and 5 female mice at a rate of 0.1 ml per 10 g of body weight.

mice = assay: Determination of the 50% lethal dose (LD50) in mice; conditions: mice, IP
Experimental: as §1, §2, §3

[2] = system: pain syndrome caused by phenylbenzoquinone (PBQ); assay: Peripheral analgesic activity (phenylbenzoquinone); assay type: in vivo; conditions: mouse; IP
Experimental: 5. Peripheral analgesic activity
A peritoneal pain is caused in mice by the intraperitoneal injection of phenylbenzoquinone (PBQ).
The test assesses the decrease in the pain syndrome, characterized by an abdominal twisting movement, which is caused by injecting the test derivative 30 min before the administration of PBQ.
The 50% effective dose is calculated from the percentage decrease in the pain syndrome relative to the control animals.

yohimbine toxicity = assay: Yohimbine test (yohimbine toxicity); assay type: in vivo; conditions: 24 h; mouse; IP; yohimbine 25 mg/kg IP
Experimental: The test derivative is administered 30 min before the injection of yohimbine (25 mg/kg IP).
The number of deaths is counted 24 h after the injection of yohimbine.

[3] = system: head twitches induced by 5-HTP; assay: Head twitches caused by 5-hydroxytryptophane (5-HTP); assay type: in vivo; conditions: Mus musculus; male mice; IP; 5-HTP 4 mg/kg; read-out: Antagonism of the head twitches induced by 5-HTP: decrease as from dose
Experimental: 1. Head twitches caused by 5-hydroxytryptophane (5-HTP)
(§4) Animals: male mice of 25±1 g
At time T-3 h, 100 mg/kg of pargyline were injected intraperitoneally.
(§5) At time T-30 minutes, the test product or distilled water (control) was injected intraperitoneally.
At time T=O, 5-HTP was injected intraperitoneally at a dose of 4 mg/kg.
All the jerky head movements made by the mice were observed over a 1-minute period every twelve minutes.
(§6) The mean number of movements was calculated and compared with the control group.

[4] = system: head twitches induced by 5-MeODMT; assay: Head twitches caused by 5-methoxydimethyltryptamine (5-MeODMT); assay type: in vivo; conditions: Mus musculus; male mice; IP; 5-MeODMT 4 mg/kg; read-out: Antagonism of the head twitches induced by 5-MeODMT: decrease as from dose
Experimental: 2. Head twitches caused by 5-methoxydimethyltryptamine (5-MeODMT)
as §4
At time T-3 hours, 100 mg/kg of pargyline were injected intraperitoneally.
as §5
At time T=O, 5-MeODMT was injected intraperitoneally at a dose of 4 mg/kg.
The number of head twitches was observed.
as §6

[5] = system: penile erections and yawning; assay: Penile erections caused by apomorphine; assay type: in vivo; conditions: Rattus norvegicus; rats; IP; apomorphine 0.20 mg/kg; read-out: Antagonism of the penile erections and yawning: antagonism as from dose
Experimental: 3. Penile erections caused by apomorphine
The test product was administered parenterally or orally to rats, placed in a transparent cage, 30 minutes before the intraperitoneal injection of 0.20 mg/kg of apomorphine.
The number of penile erections was recorded over the 30 minutes following the injection of apomorphine.
A statistical study was carried out by comparison with the numbers of erections in the control rats.

[6] = system: hyperthermia and clinical signs after tranylcypromine and tryptophan; assay: Grahame Smith's test; assay type: in vivo; conditions: rats; PO
Experimental: Animals: male rats of 200±10 g
At time T-30 minutes, the test product was administered intraperitoneally.
At time T=O, an MAOI was administered intraperitoneally (tranylcypromine, 20 mg/kg).
At time T+20 minutes, 250 mg/kg of tryptophan were administered (IP).
The temperature of the rats was recorded every 30 minutes for 200 minutes and the various clinical signs (motor agitation--hypersalivation--catatonia of the tail--hyperesthesia--thrashing of the tail, etc.) were noted on a scale of 0 to 1.
The mean temperatures and the average symptoms observed were calculated by comparison with the controls.

central nervous system = assay: Pharmacological tests on the central nervous system, overall result; assay type: in vivo, mouse, rat; conditions: overall statement on Table III
Experimental: The pharmacological properties of the compounds of the invention were determined using the following tests: Experimental protocols The results obtained are collated in Table III below. […]

[7] = system: antiserotoninergic activity; assay: Antiserotoninergic activity tests, overall result; assay type: in vivo, mice, rats; conditions: overall statement on Table IV
Source text: The compound of Example 1 was furthermore tested for its antiserotoninergic activity according to the following tests: […]

motor activity of mice = assay: Study of the spontaneous motility (photoelectric actimeter); assay type: in vivo; conditions: mouse, IP; for Activity (spontaneous motility): doses in mg.kg^-1
Experimental: 1. Study of the spontaneous motility
The motor activity of mice was determined using a Boissier and Simon photoelectric actimeter.
The mice are placed in groups of five in a box closed with a lid, through which two perpendicular rays of light pass; the mice cut across these rays as they move.
These movements are counted by a meter, which is read 30 min and 1 h after the administration of the test derivative.

O=C(O)CCCCCCNC1c2ccccc2CCc2ccccc21 [AMINEPTINE]
Muscle-relaxing action, traction test [1]: No action

Fc1ccc(OCCN2CCN(CCC=C(c3ccccc3)c3ccccc3)CC2)cc1 [Compound 1, 1-[(1,1-diphenyl)-1-buten-4-yl]-4-[1-(2-(4-fluorophenoxy)ethyl]piperazine dimethanesulfonate]
LD50 (in vivo): 231 mg/kg | FIDUCIAL LIMITS of LD50, CALCULATION ACCORDING TO LITCHFIELD and WILCOXON (mice): 195 to 274 mg/kg | ED50 [2]: 1.5 mg/kg | ED50 (yohimbine toxicity): 31 mg/kg | minimal effective dose [3]: ≥ 18.8 mg/kg | minimal effective dose [4]: ≥ 6.25 mg/kg | minimal effective dose [5]: ≥ 6.25 mg/kg | Grahame Smith's test: decrease at dose [6]: 37.5 mg/kg | antidepressant / central nervous system activity (central nervous system): antidepressants with a greater activity than the known antidepressants | antiserotoninergic activity [7]: possesses an antiserotoninergic activity

Cc1ccccc1OC(CCN1CCN(CCC=C(c2ccccc2)c2ccccc2)CC1)c1ccccc1 (stereo not drawn) [Compound 4]
LD50 (in vivo): 386 mg/kg | FIDUCIAL LIMITS of LD50, CALCULATION ACCORDING TO LITCHFIELD and WILCOXON (mice): 279 to 453 mg/kg | Activity (spontaneous motility) (motor activity of mice): Increase | ED50 [2]: 1.5 mg/kg

Fc1ccc(OC(CCN2CCN(CCC=C(c3ccccc3)c3ccccc3)CC2)c2ccccc2)cc1 (stereo not drawn) [Compound 5]
LD50 (in vivo): 314 mg/kg | FIDUCIAL LIMITS of LD50, CALCULATION ACCORDING TO LITCHFIELD and WILCOXON (mice): 234 to 421 mg/kg

Fc1ccc(OCCCN2CCN(CCC=C(c3ccccc3)c3ccccc3)CC2)cc1 [Compound 6]
LD50 (in vivo): 247 mg/kg | FIDUCIAL LIMITS of LD50, CALCULATION ACCORDING TO LITCHFIELD and WILCOXON (mice): 206 to 296 mg/kg | ED50 (yohimbine toxicity): 25 mg/kg

O=C(CCCN1CCN(CCC=C(c2ccccc2)c2ccccc2)CC1)c1ccc(F)cc1 [Compound 7]
ED50 (motor activity of mice): 7.5 mg/kg | ED50 (yohimbine toxicity): > 25 mg/kg

Fc1ccc(OCCCCN2CCN(CCC=C(c3ccccc3)c3ccccc3)CC2)cc1 [Compound 8]
LD50 (in vivo): 199 mg/kg | FIDUCIAL LIMITS of LD50, CALCULATION ACCORDING TO LITCHFIELD and WILCOXON (mice): 172 to 229 mg/kg | ED50 [2]: 6.25 mg/kg | ED50 (yohimbine toxicity): > 25 mg/kg

Cc1ccc(OCCCCN2CCN(CCC=C(c3ccccc3)c3ccccc3)CC2)cc1 [Compound 14]
Activity (spontaneous motility) (motor activity of mice): Decrease | ED50 [2]: 2.5 mg/kg | ED50 (yohimbine toxicity): > 25 mg/kg

Fc1ccc(OCCN2CCN(CCCC=C(c3ccccc3)c3ccccc3)CC2)cc1 [Compound 16]
ED50 [2]: 4.5 mg/kg

Fc1ccc(OCCN2CCN(CCC=C(c3ccccc3)c3ccc(F)cc3)CC2)cc1 [Compound 17]
ED50 [2]: 5.2 mg/kg | ED50 (yohimbine toxicity): > 25 mg/kg

CN(C)CCCN1c2ccccc2CCc2ccccc21 [IMIPRAMINE]
Muscle-relaxing action, traction test [1]: No action
